Measured values as given in PMC7413516, “Antidepressant-like activity and safety profile evaluation of 1H-imidazo[2,1-f]purine-2,4(3H,8H)-dione derivatives as 5-HT1A receptor partial agonists” (PLoS ONE, 2020).
Several values for one entry are separate records, joined by “and”; a condition that tells them apart may be missing. Identical values can stand only once. Like-named read-outs stand apart in the source and are kept apart here.

Assay: Pharmacokinetic study in mice, plasma and brain structures, LC/MS/MS
Type: in vivo, Swiss albino mice
Conditions: 0.625 mg/kg i.p.; for Kp: ratio of AUC values
Protocol: Blood samples from the Swiss albino mice were collected at 0 (pre-dose), 5, 15, 30, 60, 120, 240 and 480 min after a compound administration. The blood samples and brain structures were collected under general anesthesia induced by i.p. injection of 50 mg/kg ketamine plus 8 mg/kg xylazine. The blood samples were taken into heparinized tubes, immediately centrifuged at 1000 × g for 10 min, and plasma was collected. The plasma samples and brain structures were immediately frozen at -30°C and -80°C, respectively.
The plasma and tissue sample pretreatment procedure involved acetonitrile precipitation. A 5 μL aliquot of the IS working solution (100 ng/mL) was added to 50 μL of the collected mouse plasma sample, which was then vortex-mixed for 10 seconds. Thereafter, 200 μL of acetonitrile was added, vortexed during 20 min, and then centrifuged (1000 × g, 10 min). The supernatant (100 μL) was then transferred to insert placed in an autosampler vial, and a 10 μL volume of this was injected onto the HPLC column. Tissue samples were thawed before use, and whole hippocampus, striatum and frontal cortex were weighted and placed in a glass mortar and pestle tissue grinder and homogenized with an appropriate amount of phosphate buffer (pH 7.4) in 1:5 ratio. Afterward, 50 μL of tissue homogenates were transferred to new Eppendorf tubes and spiked with 5 μL of the internal standard working solution. All samples were stored on ice during the preparation process. This was followed by procedures like those described above.
The LC/ESI-MS/MS experiments were performed on an Applied Biosystems/MDS Sciex (Concord, Ontario, Canada) API 2000 triple quadrupole mass spectrometer equipped with an electrospray (ESI) ionization interface. This instrument was coupled to an Agilent 1100 (Agilent Technologies, Waldbronn, Germany) LC system. Data acquisition and processing were accomplished using Sciex Analyst 1.4.2 data collection and integration software.
An XBridge C18 (2.1 x 30 mm, 3.5 μm) analytical column (Waters, Milford, Massachusetts, USA) was used for compound separation. The temperatures of the column thermostat and the autosampler were set at 25°C and 10°C, respectively. The mobile phase consisted of a mixture of acetonitrile with addition of 0.1% formic acid (solvent A) and water with addition of 0.1% formic acid (solvent B) and was set at a flow rate of 0.6 mL/min. Starting amount of solvent A is 10%, isocratic elution from 0 to 3 min, and then gradient up to 90% of solvent A, and maintained to 10 min, and then gradient down to 10% of solvent A, and maintained to 15 min.
The ion source parameters were as follows: ion spray voltage: 5500 V; nebulizer gas (gas 1): 20 psi; turbo gas (gas 2): 25 psi; temperature of the heated nebulizer: 400°C; curtain gas: 40 psi; collision gas: 6 psi. Mass spectra were acquired by SRM with precursor/predominant product ion transitions for each analyte. The mass spectral Q1→Q3 transitions monitored for AZ-853, AZ-861 and for IS (nebivolol), were m/z 453.9→235.1; 504.3→285.1 and 406.2→151.1, respectively. The peak widths of precursor and product ions were set to 0.7 full width half-height. Quantification was done via peak area ratio.
Pharmacokinetic parameters were calculated by a non-compartmental approach from the average concentration values, using Phoenix WinNonlin software (Certara, Princeton, NJ 08540 USA). First order elimination rate constant (λz) was calculated by linear regression of time versus log concentration. Next, the area under the mean serum and tissue concentration versus time curve (AUC0→t) was estimated using the log-linear trapezoidal rule (1), where Ci is the plasma concentration measured at t1.
AUC0→t=∑i=1n((Ci+Ci+1)/2)∙(ti+1−ti). (1)
Area under the first-moment curve (AUMC0→t) was estimated by calculation of the total area under the first-moment curve using the Eq (2), where Ci is the plasma concentration measured at t1. AUMC0→t=∑i=1n((ti∙Ci+ti+1∙Ci+1)/2)∙(ti+1−ti). […]

[1] = Swiss albino, mouse, frontal cortex, ip, 0.625 mg/kg, read-out: Concentration, frontal cortex (Mean)
[2] = Swiss albino, mouse, frontal cortex, ip, 0.625 mg/kg, read-out: Concentration, frontal cortex (individual animals)

Structure (SMILES): Cn1c(=O)c2c(nc3n(CCCCN4CCN(c5ccccc5F)CC4)ccn23)n(C)c1=O [AZ-853, 8-(4-(4-(2-fluorophenyl)piperazin-1-yl)butyl)-1,3-dimethyl-1H-imidazo[2,1-f]purine-2,4(3H,8H)-dione]
- t0.5: ca. 1.5 h
- t0.5, frontal cortex: 73.8 min
- t0.5, hippocampus: 140.8 min
- t0.5, striatum: 74.3 min
- Cmax, plasma (0.625 mg/kg): 23.1 ng/mL
- t0.5, plasma (0.625 mg/kg): 81 min and 81.6 min
- Concentration, frontal cortex (individual animals) (15 min, 0.625 mg/kg): 252.14 ng/mL and 309.85 ng/mL and 312.66 ng/mL and 273.19 ng/mL and 294.14 ng/mL
- Concentration, hippocampus (individual animals) (15 min, 0.625 mg/kg): 298.87 ng/mL and 267.61 ng/mL and 299.52 ng/mL and 245.78 ng/mL and 289.53 ng/mL
- Concentration, plasma (individual animals) (15 min, 0.625 mg/kg): 13.52 ng/mL and 11.72 ng/mL and 14.74 ng/mL and 12.63 ng/mL and 15.85 ng/mL
- Concentration, striatum (individual animals) (15 min, 0.625 mg/kg): 445.83 ng/mL and 472.52 ng/mL and 361.97 ng/mL and 346.18 ng/mL and 398.36 ng/mL
- Concentration, frontal cortex (individual animals) (30 min, 0.625 mg/kg): 130.57 ng/mL and 174.17 ng/mL and 183.87 ng/mL and 124.72 ng/mL and 156.16 ng/mL
- Concentration, hippocampus (individual animals) (30 min, 0.625 mg/kg): 132.11 ng/mL and 120.56 ng/mL and 144.33 ng/mL and 115.85 ng/mL and 113.92 ng/mL
- Concentration, plasma (individual animals) (30 min, 0.625 mg/kg): 7.23 ng/mL and 6.19 ng/mL and 8.12 ng/mL and 7.41 ng/mL and 8.48 ng/mL
- Concentration, striatum (individual animals) (30 min, 0.625 mg/kg): 208.14 ng/mL and 240.54 ng/mL and 302.57 ng/mL and 256.75 ng/mL and 253.77 ng/mL
- Concentration, frontal cortex (individual animals) (60 min, 0.625 mg/kg): 87.55 ng/mL and 56.45 ng/mL and 81.65 ng/mL and 55.78 ng/mL and 58.24 ng/mL
- Concentration, hippocampus (individual animals) (60 min, 0.625 mg/kg): 35.33 ng/mL and 56.52 ng/mL and 54.16 ng/mL and 46.72 ng/mL and 33.91 ng/mL
- Concentration, plasma (individual animals) (60 min, 0.625 mg/kg): 2.33 ng/mL and 1.80 ng/mL and 1.95 ng/mL and 1.94 ng/mL and 1.84 ng/mL and 0.83 ng/mL
- Concentration, striatum (individual animals) (60 min, 0.625 mg/kg): 49.55 ng/mL and 56.86 ng/mL and 68.93 ng/mL and 73.14 ng/mL and 66.26 ng/mL
- Concentration, frontal cortex (individual animals) (120 min, 0.625 mg/kg): 32.55 ng/mL and 33.75 ng/mL and 20.15 ng/mL and 30.26 ng/mL and 26.34 ng/mL
- Concentration, hippocampus (individual animals) (120 min, 0.625 mg/kg): 15.62 ng/mL and 13.22 ng/mL and 11.37 ng/mL and 10.24 ng/mL and 11.13 ng/mL
- Concentration, plasma (individual animals) (120 min, 0.625 mg/kg): 4.86 ng/mL and 4.58 ng/mL and 4.97 ng/mL and 3.54 ng/mL and 3.31 ng/mL
- Concentration, striatum (individual animals) (120 min, 0.625 mg/kg): 39.45 ng/mL and 31.62 ng/mL and 38.75 ng/mL and 47.66 ng/mL and 39.13 ng/mL
- Concentration, frontal cortex (individual animals) (240 min, 0.625 mg/kg): 24.26 ng/mL and 26.65 ng/mL and 19.77 ng/mL and 20.56 ng/mL
- Concentration, hippocampus (individual animals) (240 min, 0.625 mg/kg): 6.95 ng/mL and 9.12 ng/mL and 10.23 ng/mL and 6.87 ng/mL
- Concentration, plasma (individual animals) (240 min, 0.625 mg/kg): 0.37 ng/mL and 0.35 ng/mL and 0.45 ng/mL and 0.53 ng/mL and 0.33 ng/mL and 0.26 ng/mL
- Concentration, striatum (individual animals) (240 min, 0.625 mg/kg): 2.35 ng/mL and 3.41 ng/mL and 6.93 ng/mL and 8.25 ng/mL and 6.34 ng/mL
- Kp (Swiss albino, mouse, frontal cortex, ip, read-out: Brain structure-to-plasma concentration ratio, frontal cortex (FC/P)): 18.1
- AUC(0-t) (Swiss albino, mouse, frontal cortex, ip, read-out: AUC0→t, frontal cortex (converted)): 321 ng·h/mL
- MRT (Swiss albino, mouse, frontal cortex, ip, read-out: MRT, frontal cortex (converted)): 1.5 h
- concentration at 5 min [1]: 306 ng/mL
- concentration at 5 min [2]: 268 ng/mL
- concentration at 15 min (Swiss albino, mouse, frontal cortex, ip, 0.625 mg/kg, 15 min, read-out: Concentration, frontal cortex (Mean)): 293 ng/mL
- concentration at 15 min (Swiss albino, mouse, frontal cortex, ip, 0.625 mg/kg, 15 min, read-out: Concentration, frontal cortex (individual animals)): 318 ng/mL
- concentration at 30 min (Swiss albino, mouse, frontal cortex, ip, 0.625 mg/kg, 30 min, read-out: Concentration, frontal cortex (Mean)): 156 ng/mL
- concentration at 30 min (Swiss albino, mouse, frontal cortex, ip, 0.625 mg/kg, 30 min, read-out: Concentration, frontal cortex (individual animals)): 165 ng/mL
- concentration at 60 min (Swiss albino, mouse, frontal cortex, ip, 0.625 mg/kg, 60 min, read-out: Concentration, frontal cortex (Mean)): 66 ng/mL
- concentration at 60 min (Swiss albino, mouse, frontal cortex, ip, 0.625 mg/kg, 60 min, read-out: Concentration, frontal cortex (individual animals)): 56.3 ng/mL
- concentration at 120 min (Swiss albino, mouse, frontal cortex, ip, 0.625 mg/kg, 120 min, read-out: Concentration, frontal cortex (Mean)): 27.5 ng/mL
- concentration at 120 min (Swiss albino, mouse, frontal cortex, ip, 0.625 mg/kg, 120 min, read-out: Concentration, frontal cortex (individual animals)): 22.2 ng/mL
- concentration at 240 min (Swiss albino, mouse, frontal cortex, ip, 0.625 mg/kg, 240 min, read-out: Concentration, frontal cortex (Mean)): 23.3 ng/mL
- concentration at 240 min (Swiss albino, mouse, frontal cortex, ip, 0.625 mg/kg, 240 min, read-out: Concentration, frontal cortex (individual animals)): 20.8 ng/mL
- concentration at 480 min [1]: 14.6 ng/mL
- concentration at 480 min [2]: 18.6 ng/mL
- Cmax (Swiss albino, mouse, frontal cortex, ip, 0.625 mg/kg, read-out: Cmax, frontal cortex): 306 ng/g
- Tmax (Swiss albino, mouse, frontal cortex, ip, 0.625 mg/kg, read-out: tmax, frontal cortex (converted)): 5 min
- Kp (Swiss albino, mouse, hippocampus, ip, read-out: Brain structure-to-plasma concentration ratio, hippocampus (H/P)): 11.9
- AUC(0-t) (Swiss albino, mouse, hippocampus, ip, read-out: AUC0→t, hippocampus (converted)): 210 ng·h/mL
- MRT (Swiss albino, mouse, hippocampus, ip, read-out: MRT, hippocampus (converted)): 1.19 h
- concentration at 5 min (Swiss albino, mouse, hippocampus, ip, 0.625 mg/kg, read-out: Concentration, hippocampus (Mean)): 191 ng/mL
